Reference: patent publication EP0551518A1, “QUINOLINECARBOXYLIC ACID DERIVATIVE” (NIPPON SHINYAKU COMPANY, LIMITED, priority 1990, dated 1992)
Converted amounts (≈) assume the structure as drawn. Like-named read-outs stand apart in the source and are kept apart here.

Experiments:
Test in all cases: Determination of minimal inhibitory concentration of growth (MIC)-1, agar plate dilution method
Format in all cases: cell-based
Proteus vulgaris HX-19 = details: Proteus vulgaris, HX19, 18 h
Method: (§1) Method: MIC was determined by the agar plate dilution method in accordance with the standard protocol of Japan Society of Chemotherapy (cf. Chemotherapy 29 (1), 76-79, 1981). Each bacterial culture obtained by 18-hour incubation in a sensitivity assay bouillon medium at 37°C was diluted to 10⁶ CFU/ml with the same medium. Using a microplanter, a sensitivity assay agar medium containing the test drug was inoculated with the diluted culture and incubated at 37°C for 18 hours. The MIC value was then determined. As reference drugs, 6-fluoro-1-methyl-4-oxo-7-(1-piperazinyl)-4H-[1,3]thiazeto[3,2-a]quinoline-3-carboxylic acid (referred to as control), ciprofloxacin (CPFX) and ofloxacin (OFLX) were used.

[1] = test system: Micrococcus luteus ATCC 9341
Method: as §1

[2] = test system: Staphylococcus aureus 209-P JC-1; details: Staphylococcus aureus, 209P, 18 h
Method: as §1

[3] = test system: Staphylococcus aureus OWPH 2125 (MRSA, PCA^r ); details: Staphylococcus aureus, MRSA, 18 h
Method: as §1

[4] = test system: Pseudomonas aeruginosa IFO 3445; details: Pseudomonas aeruginosa, IFO3445, 18 h
Method: as §1

[5] = test system: Staphylococcus aureus OWPH 1984 (MRSA); details: Staphylococcus aureus, MRSA, 18 h
Method: as §1

[6] = test system: Enterococcus faecalis ATCC 29212
Method: as §1

[7] = test system: Staphylococcus aureus Smith
Method: as §1

[8] = test system: Staphylococcus epider-midis IFO 12993; details: Staphylococcus, IFO12993, 18 h
Method: as §1

[9] = test system: Bacillus subtilis ATCC 6633
Method: as §1

Escherichia coli KC-14 = details: Escherichia coli, KC14, 18 h, 10⁶ CFU/ml, 37°C, read-out: MIC
Method: as §1

[10] = Proteus vulgaris HX-19, agar plate dilution, 10⁶ CFU/ml, 37°C, 18 hours, read-out: MIC
[11] = ATCC9341, Micrococcus luteus ATCC 9341, agar plate dilution, 10⁶ CFU/ml, 37°C, 18 hours, read-out: MIC
[12] = Staphylococcus aureus 209-P JC-1, agar plate dilution, 10⁶ CFU/ml, 37°C, 18 hours, read-out: MIC
[13] = Staphylococcus aureus OWPH 2125 (MRSA, PCA^r), agar plate dilution, 10⁶ CFU/ml, 37°C, 18 hours, read-out: MIC
[14] = Pseudomonas aeruginosa IFO 3445, agar plate dilution, 10⁶ CFU/ml, 37°C, 18 hours, read-out: MIC
[15] = Staphylococcus aureus OWPH 1984 (MRSA), agar plate dilution, 10⁶ CFU/ml, 37°C, 18 hours, read-out: MIC
[16] = ATCC29212, Enterococcus faecalis ATCC 29212, agar plate dilution, 10⁶ CFU/ml, 37°C, 18 hours, read-out: MIC
[17] = Staphylococcus aureus Smith, agar plate dilution, 10⁶ CFU/ml, 37°C, 18 hours, read-out: MIC
[18] = Staphylococcus epider-midis IFO 12993, agar plate dilution, 10⁶ CFU/ml, 37°C, 18 hours, read-out: MIC
[19] = ATCC6633, Bacillus subtilis ATCC 6633, agar plate dilution, 10⁶ CFU/ml, 37°C, 18 hours, read-out: MIC

Structure (SMILES)	MIC (Proteus vulgaris HX-19; [10]) [µg/mL]	MIC [1, 11] [µg/mL]	MIC [2, 12] [µg/mL]	MIC [3, 13] [µg/mL]	MIC [4, 14] [µg/mL]	MIC [5, 15] [µg/mL]	MIC [6, 16] [µg/mL]	MIC [7, 17] [µg/mL]	MIC [8, 18] [µg/mL]	MIC [9, 19] [µg/mL]	MIC (Escherichia coli KC-14) [µg/mL]	other results
CC1COc2c(N3CCN(C)CC3)c(F)cc3c(=O)c(C(=O)O)cn1c23 (racemic) [OFLX, ofloxacin, reference compound]	0.05 (≈ 0.138 µM)	3.13 (≈ 8.66 µM)	0.39 (≈ 1.08 µM)	6.25 (≈ 17.3 µM)	0.78 (≈ 2.16 µM)	0.39 (≈ 1.08 µM)	1.56 (≈ 4.32 µM)	0.2 (≈ 0.553 µM)	0.39 (≈ 1.08 µM)	0.1 (≈ 0.277 µM)	0.05 (≈ 0.138 µM)	
O=C(O)c1cn(C2CC2)c2cc(N3CCNCC3)c(F)cc2c1=O [CPFX, ciprofloxacin, reference compound]											0.025 (≈ 0.0754 µM)	MIC (Proteus vulgaris HX-19): 0.025 µg/mL (≈ 0.0754 µM); MIC ([1]; Micrococcus luteus, ATCC9341, 18 h): 0.39 µg/mL (≈ 1.18 µM); MIC [2]: 0.2 µg/mL (≈ 0.604 µM); MIC [3]: 12.5 µg/mL (≈ 37.7 µM); MIC [4]: 0.2 µg/mL (≈ 0.604 µM); MIC [5]: 0.39 µg/mL (≈ 1.18 µM); MIC ([6]; Enterococcus faecalis, ATCC29212, 18 h): 1.56 µg/mL (≈ 4.71 µM); MIC ([7]; Staphylococcus aureus, 18 h): 0.2 µg/mL (≈ 0.604 µM); MIC [8]: 0.39 µg/mL (≈ 1.18 µM); MIC ([9]; Bacillus subtilis, ATCC6633, 18 h): 0.05 µg/mL (≈ 0.151 µM)
CC1Sc2c(C(=O)O)c(=O)c3cc(F)c(-c4ccccc4)cc3n21 (stereo not drawn) [Example 5, 6-Fluoro-1-methyl-4-oxo-7-phenyl-4H-[1,3]thiazeto[3,2-a]quinoline-3-carboxylic acid]	0.05 (≈ 0.146 µM)	0.39 (≈ 1.14 µM)	0.025 (≈ 0.0732 µM)	0.05 (≈ 0.146 µM)	0.2 (≈ 0.586 µM)	0.012 (≈ 0.0352 µM)	0.1 (≈ 0.293 µM)	≤ 0.006	0.025 (≈ 0.0732 µM)	≤ 0.006	0.1 (≈ 0.293 µM)	
O=C(O)c1c2n(c3cc(-c4ccccc4)c(F)cc3c1=O)CS2 [Example 18, 6-Fluoro-4-oxo-7-phenyl-4H-[1,3]thiazeto[3,2-a]quinoline-3-carboxylic acid]	0.025 (≈ 0.0764 µM)	6.25 (≈ 19.1 µM)	0.012 (≈ 0.0367 µM)	0.2 (≈ 0.611 µM)	0.39 (≈ 1.19 µM)	0.025 (≈ 0.0764 µM)	0.39 (≈ 1.19 µM)	≤ 0.006	0.1 (≈ 0.305 µM)	≤ 0.006	0.2 (≈ 0.611 µM)	
O=C(O)c1c2n(c3c(F)c(-c4ccccc4)c(F)cc3c1=O)CS2 [Example 19, 6,8-Difluoro-4-oxo-7-phenyl-4H-[1,3]thiazeto[3,2-a]quinoline-3-carboxylic acid]	0.012 (≈ 0.0347 µM)	6.25 (≈ 18.1 µM)	0.012 (≈ 0.0347 µM)	0.2 (≈ 0.579 µM)	0.78 (≈ 2.26 µM)	0.025 (≈ 0.0724 µM)	0.2 (≈ 0.579 µM)	≤ 0.006	0.025 (≈ 0.0724 µM)	≤ 0.006	0.1 (≈ 0.29 µM)	
COc1c(-c2ccccc2)c(F)cc2c(=O)c(C(=O)O)c3n(c12)CS3 [Example 21, 6-Fluoro-8-methoxy-4-oxo-7-phenyl-4H-[1,3]thiazeto[3,2-a]quinoline-3-carboxylic acid]	0.39 (≈ 1.09 µM)	3.13 (≈ 8.76 µM)	0.05 (≈ 0.14 µM)	0.39 (≈ 1.09 µM)	6.25 (≈ 17.5 µM)	0.025 (≈ 0.07 µM)	0.39 (≈ 1.09 µM)	0.05 (≈ 0.14 µM)	0.05 (≈ 0.14 µM)	0.025 (≈ 0.07 µM)	0.78 (≈ 2.18 µM)	
CC1Sc2c(C(=O)O)c(=O)c3cc(F)c(-c4ccccc4)c(F)c3n21 (stereo not drawn) [Example 24, 6,8-Difluoro-1-methyl-4-oxo-7-phenyl-4H-[1,3]thiazeto[3,2-a]quinoline-3-carboxylic acid]	0.1 (≈ 0.278 µM)	0.39 (≈ 1.09 µM)	0.012 (≈ 0.0334 µM)	0.05 (≈ 0.139 µM)	0.39 (≈ 1.09 µM)	0.012 (≈ 0.0334 µM)	0.05 (≈ 0.139 µM)	≤ 0.006	0.012 (≈ 0.0334 µM)	≤ 0.006	0.2 (≈ 0.557 µM)	
COc1c(-c2ccc(N)cc2)c(F)cc2c(=O)c(C(=O)O)c3n(c12)C(C)S3 (stereo not drawn) [Example 27, 7-(4-Aminophenyl)-6-fluoro-8-methoxy-1-methyl-4-oxo-4H[1,3]thiazeto[3,2-a]quinoline-3-carboxylic acid]	0.012 (≈ 0.0311 µM)	0.1 (≈ 0.259 µM)	0.012 (≈ 0.0311 µM)	≤ 0.006	0.78 (≈ 2.02 µM)	≤ 0.006	0.05 (≈ 0.129 µM)	≤ 0.006	≤ 0.006	≤ 0.006	0.1 (≈ 0.259 µM)	
Nc1ccc(-c2cc3c(cc2F)c(=O)c(C(=O)O)c2n3CS2)cc1 [Example 31, 7-(4-Aminophenyl)-6-fluoro-4-oxo-4H-[1,3]thiazeto[3,2-a]quinoline-3-carboxylic acid]	≤ 0.006	1.56 (≈ 4.56 µM)	0.012 (≈ 0.0351 µM)	0.2 (≈ 0.584 µM)	0.2 (≈ 0.584 µM)	0.025 (≈ 0.073 µM)	0.1 (≈ 0.292 µM)	≤ 0.006	≤ 0.006	≤ 0.006	0.025 (≈ 0.073 µM)	
COc1ccc(-c2cc3c(cc2F)c(=O)c(C(=O)O)c2n3C(C)S2)cc1 (stereo not drawn) [Example 38, 6-Fluoro-7-(4-methoxyphenyl)-1-methyl-4-oxo-4H-[1,3]th-iazeto[3,2-a]quinoline-3-carboxylic acid]	0.78 (≈ 2.1 µM)	0.39 (≈ 1.05 µM)	0.1 (≈ 0.269 µM)	0.2 (≈ 0.539 µM)	1.56 (≈ 4.2 µM)	0.025 (≈ 0.0673 µM)	0.2 (≈ 0.539 µM)	0.025 (≈ 0.0673 µM)	0.1 (≈ 0.269 µM)	0.012 (≈ 0.0323 µM)	0.39 (≈ 1.05 µM)	
CC1Sc2c(C(=O)O)c(=O)c3cc(F)c(-c4ccc(O)cc4)cc3n21 (stereo not drawn) [Example 44, 6-Fluoro-7-(4-hydroxyphenyl)-1-methyl-4-oxo-4H-[1,3]thiazeto[3,2-a]quinoline-3-carboxylic acid]	0.025 (≈ 0.07 µM)	0.1 (≈ 0.28 µM)	≤ 0.006	0.05 (≈ 0.14 µM)	0.2 (≈ 0.56 µM)	0.012 (≈ 0.0336 µM)	0.1 (≈ 0.28 µM)	≤ 0.006	≤ 0.006	≤ 0.006	0.1 (≈ 0.28 µM)	
CNc1ccc(-c2cc3c(cc2F)c(=O)c(C(=O)O)c2n3CS2)cc1 [Example 46, 6-Fluoro-7-(4-methylaminophenyl)-4-oxo-4H-[1,3]thiazeto[3,2-a]quinoline-3-carboxylic acid]	0.025 (≈ 0.0702 µM)	0.78 (≈ 2.19 µM)	0.025 (≈ 0.0702 µM)	0.1 (≈ 0.281 µM)	0.78 (≈ 2.19 µM)	0.012 (≈ 0.0337 µM)	0.2 (≈ 0.561 µM)	≤ 0.006	0.05 (≈ 0.14 µM)	≤ 0.006	0.1 (≈ 0.281 µM)	
CCNc1ccc(-c2cc3c(cc2F)c(=O)c(C(=O)O)c2n3C(C)S2)cc1 (stereo not drawn) [Example 47, 7-(4-Ethylaminophenyl)-6-fluoro-1-methyl-4-oxo-4H-[1,3]thiazeto[3,2-a]quinoline-3-carboxylic acid]	0.05 (≈ 0.13 µM)	0.39 (≈ 1.01 µM)	0.025 (≈ 0.065 µM)	0.05 (≈ 0.13 µM)	1.56 (≈ 4.06 µM)	0.025 (≈ 0.065 µM)	0.1 (≈ 0.26 µM)	≤ 0.006	≤ 0.006	≤ 0.006	0.2 (≈ 0.52 µM)	
CNc1ccc(-c2c(F)cc3c(=O)c(C(=O)O)c4n(c3c2OC)C(C)S4)cc1 (stereo not drawn) [Example 49, 6-Fluoro-8-methoxy-1-methyl-7-(4-methylaminophenyl)-4-oxo-4H-[1,3]thiazeto[3,2-a]quinoline-3-carboxylic acid]	0.39 (≈ 0.974 µM)	0.2 (≈ 0.499 µM)	0.025 (≈ 0.0624 µM)	0.1 (≈ 0.25 µM)	3.13 (≈ 7.82 µM)	0.012 (≈ 0.03 µM)	0.025 (≈ 0.0624 µM)	≤ 0.006	0.012 (≈ 0.03 µM)	≤ 0.006	0.39 (≈ 0.974 µM)	
CC1Sc2c(C(=O)O)c(=O)c3cc(F)c(-c4ccc(N)cc4)cc3n21.Cl (stereo not drawn) [Example 55, 7-(4-Aminophenyl)-6-fluoro-1-methyl-4-oxo-4H-[1,3]thiazeto[3,2-a]quinoline-3-carboxylic acid hydrochloride]	0.025	0.39	0.025	0.05	0.39	0.012	0.1	0.012	0.012	≤ 0.006	0.1	
